# In ChEMBL document CHEMBL1134254, “Syntheses of certain 3-aryl-2-propenoates and evaluation of their cytotoxicity” (Bioorg Med Chem Lett, 2001):
# What was measured:
# B16 = experiment: Inhibitory concentration against B16 murine melanoma cell line; details: Mus musculus
# HCT-116 = experiment: cells; details: Homo sapiens
# Description: Inhibitory concentration against HCT 116 human colon cancer cell line
# A-431 = experiment: cells; details: Homo sapiens
# Description: Inhibitory concentration required against A 431 human epidermoid carcinoma cell line
# SNB-19 = experiment: Inhibitory concentration required against SNB19 CNS cancer cell line; format: functional, cell-based; details: Homo sapiens
# SW-620 = experiment: Inhibitory concentration required against SW620 colon cancer cell line; details: Homo sapiens
# UACC-62 = experiment: Inhibitory concentration required against UACC62 melanoma cell line; details: Homo sapiens
# MDA-MB-231 = experiment: cells; details: Homo sapiens
# Description: Inhibitory concentration required against MDA-MB-231 breast cancer cell line
# MCF7 = experiment: Inhibitory concentration required against MCF-7 breast cancer cell line; format: functional, cell-based; details: Homo sapiens
# NCI-H23 = experiment: Inhibitory concentration required against NCI-H23 lung cancer cell line; details: Homo sapiens
# ACHN = experiment: Inhibitory concentration required against ACHN renal cancer cell line; details: Homo sapiens
# DLD-1 = experiment: Inhibitory concentration required against DLD-1 colon cancer cell line; details: Homo sapiens
# HCT-15 = experiment: Inhibitory concentration required against HCT 15 colon cancer cell line; details: Homo sapiens
# COLO 205 = experiment: cells; details: Homo sapiens
# Description: Inhibitory concentration required against COLO 205 colon cancer cell line
# LOX IMVI = experiment: Inhibitory concentration required against LOX-IMVI melanoma cell line; details: Homo sapiens
# PC-3 = experiment: Inhibitory concentration required against PC-3 prostate cancer cell line; details: Homo sapiens
# HCC 2998 = experiment: Inhibitory concentration required against HCC2998 colon cancer cell line; details: Homo sapiens
# HT-29 = experiment: Inhibitory concentration required against HT 29 colon cancer cell line; details: Homo sapiens
# A549 = experiment: cells; details: Homo sapiens
# Description: Inhibitory concentration required against A 549 lung cancer cell line
SMILES,IC50 (B16) [µg/mL],IC50 (HCT-116) [µg/mL],IC50 (A-431) [µg/mL],also measured
COC(=O)/C=C/c1ccc2c(c1)OCO2,> 30,> 30,> 30,–
COC(=O)CCc1cc(O)ccc1O,4.43,4.59,5,–
COC(=O)/C=C/c1cc(O)ccc1O,0.12,0.17,0.15,IC50 (SNB-19): 2.59 µg/mL; IC50 (SW-620): 0.39 µg/mL; IC50 (UACC-62): 0.56 µg/mL; IC50 (MDA-MB-231): 0.82 µg/mL; IC50 (MCF7): 0.37 µg/mL; IC50 (NCI-H23): 0.93 µg/mL; IC50 (ACHN): 0.73 µg/mL; IC50 (DLD-1): 0.68 µg/mL; IC50 (HCT-15): 0.27 µg/mL; IC50 (COLO 205): 0.97 µg/mL; IC50 (LOX IMVI): 0.28 µg/mL; IC50 (PC-3): 0.42 µg/mL; IC50 (HCC 2998): 5.22 µg/mL; IC50 (HT-29): 1.1 µg/mL; IC50 (A549): 7.81 µg/mL
CCCOC(=O)/C=C/c1ccc(O)c(O)c1,2.46,2.12,1.89,–
CCOC(=O)/C=C/c1cc(O)c2c(c1O)C(=O)c1ccccc1C2=O,0.32,0.71,0.91,–
COC(=O)/C=C/c1cc(OC)c2c(c1OC)C(=O)c1ccccc1C2=O,> 30,> 30,> 30,–
COC(=O)/C=C/c1cc(OC)ccc1OC,> 30,> 30,> 30,–
O=C/C=C/c1ccc(O)c(O)c1 [CAFFEOYL ALDEHYDE],> 30,> 30,> 30,–
COc1cccc2c1C(=O)c1c(O)c3c(c(O)c1C2=O)C[C@@](O)(C(=O)CO)C[C@@H]3O[C@H]1C[C@H](N)[C@H](O)[C@H](C)O1 [DOXORUBICIN],–,–,–,IC50 (SNB-19): 0.29 µg/mL
CCOC(=O)/C=C/c1ccc(O)c(O)c1 [ETHYL CAFFEATE],1.75,1.99,1.81,–
O=C1c2ccccc2C(=O)c2c(O)ccc(O)c21 [QUINIZARIN],> 30,> 30,> 30,–

# Further lines, with some results ahead:
IC50 (B16) [µg/mL],IC50 (HCT-116) [µg/mL],IC50 (A-431) [µg/mL],SMILES,also measured
25.9,27.5,> 30,COC(=O)/C=C/c1ccc(OC)c(O)c1,–
0.18,0.65,0.87,COC(=O)/C=C/c1cc(O)c2c(c1O)C(=O)c1ccccc1C2=O,IC50 (SNB-19): 0.69 µg/mL; IC50 (SW-620): 0.45 µg/mL; IC50 (UACC-62): 0.11 µg/mL; IC50 (MDA-MB-231): 0.74 µg/mL; IC50 (MCF7): 0.46 µg/mL; IC50 (NCI-H23): 0.39 µg/mL; IC50 (ACHN): 0.42 µg/mL; IC50 (DLD-1): 0.89 µg/mL; IC50 (HCT-15): 0.66 µg/mL; IC50 (COLO 205): 0.73 µg/mL; IC50 (LOX IMVI): 0.09 µg/mL; IC50 (PC-3): 2.72 µg/mL; IC50 (HCC 2998): 0.95 µg/mL; IC50 (HT-29): 0.55 µg/mL; IC50 (A549): 1.13 µg/mL
> 30,> 30,> 30,CCOC(=O)/C=C/c1cc(OC)c2c(c1OC)C(=O)c1ccccc1C2=O,–
> 30,> 30,> 30,COC(=O)/C=C/c1ccc(OC)c(OC)c1,–
4.23,4.26,5,O=C(/C=C/c1ccc(O)c(O)c1)Nc1ccccc1,–
30.1,> 30,> 30,COC(=O)/C=C\c1cc(O)ccc1O,–
2.96,3.01,1.79,COC(=O)/C=C/c1ccc(O)c(O)c1 [METHYLCAFFEATE],–
